Reference: PubChem BioAssay (NCI)
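At the GI50, growth is halved. TGI: concentration producing complete growth inhibition.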

Columns and labels:
Assay in all cases: inhibition of tumour cell growth, NCI panel, 384-well format
786-0 renal = tested on: 786-0 renal
A498 renal = tested on: A498 renal
A549 NSCLC = tested on: A549 NSCLC
ACHN renal = tested on: ACHN renal
BT-549 breast = tested on: BT-549 breast
CAKI-1 renal = tested on: CAKI-1 renal
CCRF-CEM leukemia = tested on: CCRF-CEM leukemia
COLO 205 colon = tested on: COLO 205 colon
DU-145 prostate = tested on: DU-145 prostate
HCC-2998 colon = tested on: HCC-2998 colon
HCT-116 colon = tested on: HCT-116 colon
HCT-15 colon = tested on: HCT-15 colon
HL-60(TB) leukemia = tested on: HL-60(TB) leukemia
HOP-62 NSCLC = tested on: HOP-62 NSCLC
HOP-92 NSCLC = tested on: HOP-92 NSCLC
HT29 colon = tested on: HT29 colon
IGROV1 ovarian = tested on: IGROV1 ovarian
K-562 leukemia = tested on: K-562 leukemia
KM12 colon = tested on: KM12 colon
LOX IMVI melanoma = tested on: LOX IMVI melanoma
M14 melanoma = tested on: M14 melanoma
MALME-3M melanoma = tested on: MALME-3M melanoma
MCF7 breast = tested on: MCF7 breast
MDA-MB-231 breast = tested on: MDA-MB-231 breast
MDA-MB-435 melanoma = tested on: MDA-MB-435 melanoma
MDA-MB-468 breast = tested on: MDA-MB-468 breast
MOLT-4 leukemia = tested on: MOLT-4 leukemia
NCI-H226 lung = tested on: NCI-H226 lung
NCI-H23 lung = tested on: NCI-H23 lung
NCI-H322M lung = tested on: NCI-H322M lung
NCI-H460 NSCLC = tested on: NCI-H460 NSCLC
NCI-H522 lung = tested on: NCI-H522 lung
NCI/ADR-RES ovarian = tested on: NCI/ADR-RES ovarian
OVCAR-3 ovarian = tested on: OVCAR-3 ovarian
OVCAR-4 ovarian = tested on: OVCAR-4 ovarian
OVCAR-5 ovarian = tested on: OVCAR-5 ovarian
OVCAR-8 ovarian = tested on: OVCAR-8 ovarian
PC-3 prostate = tested on: PC-3 prostate
RPMI-8226 leukemia = tested on: RPMI-8226 leukemia
RXF 393 renal = tested on: RXF 393 renal
SF-268 CNS = tested on: SF-268 CNS
SF-295 CNS = tested on: SF-295 CNS
SF-539 CNS = tested on: SF-539 CNS
SK-MEL-2 melanoma = tested on: SK-MEL-2 melanoma
SK-MEL-28 melanoma = tested on: SK-MEL-28 melanoma
SK-MEL-5 melanoma = tested on: SK-MEL-5 melanoma
SK-OV-3 ovarian = tested on: SK-OV-3 ovarian
SN12C renal = tested on: SN12C renal
SNB-19 CNS = tested on: SNB-19 CNS
SR leukemia = tested on: SR leukemia
SW-620 colon = tested on: SW-620 colon
T-47D breast = tested on: T-47D breast
TK-10 renal = tested on: TK-10 renal
U251 glioblastoma = tested on: U251 glioblastoma
UACC-257 melanoma = tested on: UACC-257 melanoma
UACC-62 melanoma = tested on: UACC-62 melanoma
UO-31 renal = tested on: UO-31 renal

## CN(C)CC[C@H](CSc1ccccc1)Nc1ccc(S(=O)(=O)NC(=O)c2ccc(N3CCN(Cc4ccccc4-c4ccc(Cl)cc4)CC3)cc2)cc1[N+](=O)[O-]
786-0 renal
  GI50: 1.94 µM
  TGI: 4.74 µM
A498 renal
  GI50: 1.42 µM
  TGI: 2.98 µM
A549 NSCLC
  GI50: 3.14 µM
  TGI: 53.2 µM
ACHN renal
  GI50: 5.2 µM
  TGI: 62.8 µM
BT-549 breast
  GI50: 2.23 µM
  TGI: 6.13 µM
CAKI-1 renal
  GI50: 1.83 µM
  TGI: 3.73 µM
CCRF-CEM leukemia
  GI50: 0.145 µM
  TGI: 0.372 µM
COLO 205 colon
  GI50: 1.68 µM
  TGI: 3.12 µM
DU-145 prostate
  GI50: 4.2 µM
  TGI: > 100 µM
HCC-2998 colon
  GI50: 0.232 µM
  TGI: 0.75 µM
HCT-116 colon
  GI50: 1.95 µM
  TGI: 4.07 µM
HCT-15 colon
  GI50: 1.68 µM
  TGI: 3.17 µM
HL-60(TB) leukemia
  GI50: 0.0477 µM
  TGI: 0.218 µM
HOP-62 NSCLC
  GI50: 3.18 µM
  TGI: 25.4 µM
HOP-92 NSCLC
  GI50: 0.177 µM
  TGI: 1.05 µM
HT29 colon
  GI50: 2.9 µM
  TGI: 13.3 µM
IGROV1 ovarian
  GI50: 1.48 µM
  TGI: 3.59 µM
K-562 leukemia
  GI50: 2.17 µM
  TGI: 5.21 µM
KM12 colon
  GI50: 2.05 µM
  TGI: 6.17 µM
LOX IMVI melanoma
  GI50: 2.36 µM
  TGI: 4.73 µM
M14 melanoma
  GI50: 2.79 µM
  TGI: 8.57 µM
MALME-3M melanoma
  GI50: 3.15 µM
  TGI: 11.2 µM
MCF7 breast
  GI50: 1.87 µM
  TGI: 4.93 µM
MDA-MB-231 breast
  GI50: 1.04 µM
  TGI: 2.39 µM
MDA-MB-435 melanoma
  GI50: 2.33 µM
  TGI: 6.07 µM
MDA-MB-468 breast
  GI50: 1.33 µM
  TGI: 3.42 µM
MOLT-4 leukemia
  GI50: 0.119 µM
  TGI: 0.252 µM
NCI-H226 lung
  GI50: 1.66 µM
  TGI: 3.86 µM
NCI-H23 lung
  GI50: 2.37 µM
  TGI: 7.46 µM
NCI-H322M lung
  GI50: 2.34 µM
  TGI: 5.7 µM
NCI-H460 NSCLC
  GI50: 3.65 µM
  TGI: 14.3 µM
NCI-H522 lung
  GI50: 4.36 µM
  TGI: 60.7 µM
NCI/ADR-RES ovarian
  GI50: > 100 µM
  TGI: > 100 µM
OVCAR-3 ovarian
  GI50: 1.63 µM
  TGI: 3.37 µM
OVCAR-4 ovarian
  GI50: 3 µM
  TGI: 9.08 µM
OVCAR-5 ovarian
  GI50: 2.01 µM
  TGI: 4.19 µM
OVCAR-8 ovarian
  GI50: 2.29 µM
  TGI: 6.24 µM
PC-3 prostate
  GI50: 1.78 µM
  TGI: 3.48 µM
RPMI-8226 leukemia
  GI50: 0.239 µM
  TGI: 0.444 µM
RXF 393 renal
  GI50: 0.258 µM
  TGI: 1.4 µM
SF-268 CNS
  GI50: 3.17 µM
  TGI: > 100 µM
SF-295 CNS
  GI50: 2.46 µM
  TGI: 6.83 µM
SF-539 CNS
  GI50: 5.46 µM
  TGI: 100 µM
SK-MEL-2 melanoma
  GI50: 1.64 µM
  TGI: 3.64 µM
SK-MEL-28 melanoma
  GI50: 2.77 µM
  TGI: 6.76 µM
SK-MEL-5 melanoma
  GI50: 1.3 µM
  TGI: 2.64 µM
SK-OV-3 ovarian
  GI50: 2.31 µM
  TGI: 6.3 µM
SN12C renal
  GI50: 2.26 µM
  TGI: 5.79 µM
SNB-19 CNS
  GI50: 3.11 µM
  TGI: > 100 µM
SR leukemia
  GI50: 0.223 µM
  TGI: 1.48 µM
SW-620 colon
  GI50: 3.52 µM
  TGI: 12.2 µM
T-47D breast
  GI50: 2.41 µM
  TGI: 9.13 µM
TK-10 renal
  GI50: 1.98 µM
  TGI: 4.79 µM
U251 glioblastoma
  GI50: 2.56 µM
  TGI: 7.35 µM
UACC-257 melanoma
  GI50: 1.49 µM
  TGI: 3.71 µM
UACC-62 melanoma
  GI50: 3.02 µM
  TGI: 10.5 µM
UO-31 renal
  GI50: 1.79 µM
  TGI: 3.58 µM
